These results are taken from article PMC3019153 (PLoS ONE, 2011).

The target in experiment [1] is T1, mycobacterial dephosphocoenzyme A kinase K14A mutant (Mycobacterium tuberculosis, UniProt P9WPA3, K14A). Format: binding. The settings on record: pH 7.8.
The target in experiment [2] is T2, mycobacterial dephosphocoenzyme A kinase R140K mutant (Mycobacterium tuberculosis, UniProt P9WPA3, R140K). Format: binding.
Experiment [3] deals with T3, wild type mycobacterial dephosphocoenzyme A kinase (CoaE) (Mycobacterium tuberculosis, UniProt P9WPA3).
T3 sequence (P9WPA3 1-407): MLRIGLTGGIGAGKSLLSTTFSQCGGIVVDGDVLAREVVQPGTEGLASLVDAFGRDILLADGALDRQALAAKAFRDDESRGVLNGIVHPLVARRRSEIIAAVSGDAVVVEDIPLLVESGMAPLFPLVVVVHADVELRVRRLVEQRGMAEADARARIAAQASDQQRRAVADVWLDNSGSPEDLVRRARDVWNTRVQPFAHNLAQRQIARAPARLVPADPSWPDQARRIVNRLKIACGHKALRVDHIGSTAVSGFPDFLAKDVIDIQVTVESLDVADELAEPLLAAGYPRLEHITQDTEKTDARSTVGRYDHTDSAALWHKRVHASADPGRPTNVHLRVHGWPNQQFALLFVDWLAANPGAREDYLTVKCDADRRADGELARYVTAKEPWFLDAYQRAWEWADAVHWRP
It is filed as biochemical.

The target of experiment [4] is T1, mycobacterial dephosphocoenzyme A kinase K14A mutant. It is filed as biochemical.
In experiment [5] the target is mycobacterial dephosphocoenzyme A kinase G8A mutant (Mycobacterium tuberculosis, UniProt P9WPA3, G8A). Format: biochemical.
Experiment [6] has as its target mycobacterial dephosphocoenzyme A kinase R140A mutant (Mycobacterium tuberculosis, UniProt P9WPA3, R140A). It is filed as biochemical.
In experiment [7] the target is T2, mycobacterial dephosphocoenzyme A kinase R140K mutant. It is filed as biochemical.
For experiment [8], the target named is T4, mycobacterial dephosphocoenzyme A kinase D32A mutant (Mycobacterium tuberculosis, UniProt P9WPA3, D32A). It is filed as biochemical.
Experiment [9] addresses T5, mycobacterial dephosphocoenzyme A kinase D32E mutant (Mycobacterium tuberculosis, UniProt P9WPA3, D32E). Format: biochemical.
For experiment [10], the target named is mycobacterial dephosphocoenzyme A kinase L114A mutant (Mycobacterium tuberculosis, UniProt P9WPA3, L114A). It is filed as biochemical.
Experiment [11] has as its target T3, wild type mycobacterial dephosphocoenzyme A kinase (CoaE). Format: binding. Particulars: pH 7.8.
For experiment [12], the target named is T5, mycobacterial dephosphocoenzyme A kinase D32E mutant. It is filed as binding. The settings on record: pH 7.8.
Experiment [13] deals with T4, mycobacterial dephosphocoenzyme A kinase D32A mutant. It is filed as binding. Particulars: pH 7.8.

Several values for one entry are separate records, joined by “and”; a condition that tells them apart may be missing. Identical values can stand only once. Entries after “also recorded” stand apart in the source; their conditions may differ.

For `Nc1ncnc2c1ncn2[C@@H]1O[C@H](CO[P@](=O)(O)O[P@](=O)(O)O[P@@](=O)(O)S)[C@@H](O)[C@H]1O` [NHATP, ATP-γS], in [1], the ΔH is −1826 calM^−1 and −1826(±195.7) calM^−1; the ΔS is 13.8 calM^−1K^−1 and 13.8(±0.59) calM^−1K^−1. For the same compound, in [2] (pH 7.8), the “N (binding)” value is given as “No binding”.

With `CC(C)(COP(=O)(O)OP(=O)(O)OC[C@H]1O[C@@H](n2cnc3c(N)ncnc32)[C@H](O)[C@@H]1O)[C@@H](O)C(=O)NCCC(=O)NCCS` [DCoA, dephosphocoenzyme A], the Kcat is 0.0257 s⁻¹ and 0.0293 s⁻¹ in experiment [3]; 1.532 min⁻¹ in [4]; 0.02572 s⁻¹ in experiment [5]; “nr” in [6]; 0.00755 s⁻¹ in experiment [7]; 0.00171 s⁻¹ in [8]. Also, the Kcat was found to be 0.0327 s⁻¹ in [9] and 0.0569 s⁻¹ in [10]. The Km in [4] was determined as 75.8 µM; in experiment [5] it was 37.2 µM; in experiment [7] it was 181 µM; in experiment [8], 501 µM; in [9], 21.7 µM; in experiment [10], 80.9 µM. For the same compound, in [7], the “Kcat, % of the WT” value was ~15%. In addition, the “increase in the Km” value in [8] is 15 fold. For the same compound, in experiment [9], the “increase in the affinity of the mutant enzyme” value came out at 62.17%. Also, the ΔH in experiment [11] is −3719((±201.5) calM^−1; in [1] it was -3576 calM^−1 and −3576(±115.7) calM^−1; in experiment [2] (pH 7.8) it was −7723 calM^−1; in experiment [12], −4355(±138.7) calM^−1; in [13], −1559(±72.9) calM^−1. Also, the ΔS in experiment [11] is on record as 6.32(±0.34) calM^−1K^−1; in experiment [1] it was 5.73(±0.37) calM^−1K^−1; in [2] (pH 7.8), −6.5((±0.49) calM^−1K^−1; in experiment [12] it was 4.94(±0.42) calM^−1K^−1; in experiment [13], −35.1(±0.98) calM^−1K^−1. Further, the values for the Ka in experiment [1], in experiment [2] (pH 7.8) and in [12] were 1.32(±1.45E3) M^−1*10^−4, 2.17(±1.23E3) M^−1*10^−4 and 2.12 (±2.61E3) M^−1*10^−4, respectively. The “binding of the leading substrate (in words)” value in experiment [2] is “reasonably well”.

For the compound `Nc1ncnc2c1ncn2[C@@H]1O[C@H](COP(=O)(O)OP(=O)(O)OP(=O)(O)O)[C@@H](O)[C@H]1O` [ATP], the Kcat was 2.34 and 2.34 min^−1 in [4]; 0.04272 s⁻¹ in experiment [5]; “nr” in experiment [6]; 0.014 s⁻¹ in experiment [8]; 0.0666 s⁻¹ in experiment [9]; 0.0192 s⁻¹ in experiment [10]. In addition, the Km in [4] is 86.7 µM; in experiment [5], 59.8 µM; in [6], “nr”; in experiment [9] it was 34.5 µM; in [10] it was 63.9 µM. For the same compound, the “increase in the Km” value in experiment [4] was 50%. Besides, the “reduction in the Kcat” value in experiment [4] is 19%. Moreover, in experiment [8], the “Kcat, % of the WT” value is recorded as “about 28%”. Moreover, the “increase in the affinity of the mutant enzyme” value in [9] worked out at 60.58%. Moreover, the “binding to ATP (in words)” value in [2] is given as “poor binding; also recorded: very poor binding”.

For orientation: Km means the substrate concentration at which the rate is half of its maximum.
